Experiments:
Format in all cases: in vivo, rat
[1] = system: female Sprague-Dawley mature and young adult rats; assay: Animal study of bone quality, daily oral gavage for a minimum of 28 days (overall findings, histopathology)
Description: The following were evaluated: clinical signs (at least weekly), body weight (weekly), food consumption (weekly), hormones (Days 13 and 27), serum and urinary biochemical markers of bone turnover (Days 13 and 27), serum chemistry (at necropsy), bone densitometry by dual energy X-ray absorptiometry (DXA) and peripheral quantitative computed tomography (pQCT) (Week 2 and 4, as well as ex vivo), macroscopic observations at necropsy, organ weights, histopathology, biomechanical strength testing and femoral length measurements.

[2] = system: female Sprague-Dawley mature and young adult rats; assay: Biomechanical testing: L3, L4 vertebral compression; conditions: for AUC (work to failure), percent difference from Vehicle Control / Apparent Strength, percent difference from Vehicle Control / Modulus, percent difference from Vehicle Control / Peak Load, percent difference from Vehicle Control / Stiffness, percent difference from Vehicle Control / Toughness, percent difference from Vehicle Control / Yield Load, percent difference from Vehicle Control / Yield Stress, percent difference from Vehicle Control / AUC (work to failure) / Apparent Strength / Modulus / Peak Load / Stiffness / Toughness / Yield Load / Yield Stress: L3 + L4 vertebral bodies; for AUC (work to failure) / Apparent Strength / Modulus / Peak Load / Stiffness / Toughness / Yield Load / Yield Stress: mean
Description: (§1) Biomechanical testing was performed using an 858 Mini Bionix Servohydraulic Test System, Model 242.03. All data was collected using TestWorks® version 3.8A for TestStar™ software, version 4.0C.
(§2) At necropsy, all specimens were cleaned of excess tissue (not scraped) and individually wrapped in gauze soaked with saline, covered with plastic film and placed in an appropriately labelled plastic bag. Bone samples were retained frozen (ca −20° C.) until subjected to the following biomechanical evaluations:
For compression testing, the vertebral body of the vertebrae was isolated by removing the vertebral arch and removing both inter-vertebral discs. The section obtained had two parallel cut surfaces and the trabecular bone exposed.
The L3 and L4 vertebral body were tested in compression to failure. The loading rate was set at 20 mm/min. Load and displacement data were collected and apparent strength and modulus were calculated using the peak load, stiffness, individual vertebral body height and cross sectional area from the pQCT scans. The work to failure was determined from the area under the curve (AUC) and toughness was calculated. Yield load was originally derived using a 0.2% off-set however a 0.1% off-set was considered more appropriate and yield stress was calculated. All data derived from the 0.2% off-set yield load was kept with the study file but not reported.

[3] = system: female Sprague-Dawley mature and young adult rats; assay: Biomechanical testing: right femur 3-point bending; conditions: ex vivo; for Femur 3-point bending AUC / Femur 3-point bending Modulus / Femur 3-point bending Peak Load / Femur 3-point bending Stiffness / Femur 3-point bending Toughness / Femur 3-point bending Ultimate Stress: mean
Description: as §1, §2
For 3-point bending, the right femur was cleaned of soft tissue, especially at the diaphysis in the area of the span.
The right femur was tested to failure in three-point bending to determine the material properties of femoral cortical bone. The marked point on the anterior side served as the upper loading point for each femur and the actuator was set at a rate of 1 mm/sec until failure occurred. Load and displacement data were collected. Peak load was determined from the resulting load versus displacement curve and converted to ultimate stress using the radius, cross-sectional moment of inertia and the span. The work to failure was determined from the area under the curve (AUC) and toughness was calculated. Approximate midspan values for stiffness were recorded (defined as the slope of the linear/elastic region of the load versus displacement curve) and modulus was calculated using the moment of inertia obtained from the pQCT data.

SMILES: COc1ccc(Cc2c(OC3OC(CO)C(F)C(O)C3O)n[nH]c2C(F)(F)F)cc1 (stereo not shown) [Example 5 of formula II]
- effects on bone mass and bone strength associated parameters ([1]; both dose levels (10, 50 mg/kg/day), both rat populations): positive effects
- trabecular bone noted histopathologically ([1]; young only): increase in trabecular bone
- Strength parameters at the lumbar spine ([2]; 50 mg/kg/day): positively affected
- AUC (work to failure), percent difference from Vehicle Control ([2]; mature adults, 10 mg/kg/day): 3.5%
- Apparent Strength, percent difference from Vehicle Control ([2]; mature adults, 10 mg/kg/day): 3.4%
- Modulus, percent difference from Vehicle Control ([2]; mature adults, 10 mg/kg/day): −2.0%
- Peak Load, percent difference from Vehicle Control ([2]; mature adults, 10 mg/kg/day): 6.0%
- Stiffness, percent difference from Vehicle Control ([2]; mature adults, 10 mg/kg/day): 0.9%
- Toughness, percent difference from Vehicle Control ([2]; mature adults, 10 mg/kg/day): 2.0%
- Yield Load, percent difference from Vehicle Control ([2]; mature adults, 10 mg/kg/day): 4.3%
- Yield Stress, percent difference from Vehicle Control ([2]; mature adults, 10 mg/kg/day): 2.1%
- AUC (work to failure) ([2]; mature adults, 10 mg/kg/day): 21.5 N-mm
- Apparent Strength ([2]; mature adults, 10 mg/kg/day): 48.3 MPa
- Modulus ([2]; mature adults, 10 mg/kg/day): 2102.6 MPa
- Peak Load ([2]; mature adults, 10 mg/kg/day): 375.5 N
- Stiffness ([2]; mature adults, 10 mg/kg/day): 5308.6 N/mm
- Toughness ([2]; mature adults, 10 mg/kg/day): 0.9 MPa
- Yield Load ([2]; mature adults, 10 mg/kg/day): 329.3 N
- Yield Stress ([2]; mature adults, 10 mg/kg/day): 42.5 MPa
- AUC (work to failure), percent difference from Vehicle Control ([2]; mature adults, 50 mg/kg/day): 22.1%
- Apparent Strength, percent difference from Vehicle Control ([2]; mature adults, 50 mg/kg/day): 14.1%
- Modulus, percent difference from Vehicle Control ([2]; mature adults, 50 mg/kg/day): 2.5%
- Peak Load, percent difference from Vehicle Control ([2]; mature adults, 50 mg/kg/day): 21.6%
- Stiffness, percent difference from Vehicle Control ([2]; mature adults, 50 mg/kg/day): 17.8%
- Toughness, percent difference from Vehicle Control ([2]; mature adults, 50 mg/kg/day): 20.6%
- Yield Load, percent difference from Vehicle Control ([2]; mature adults, 50 mg/kg/day): 16.6%
- Yield Stress, percent difference from Vehicle Control ([2]; mature adults, 50 mg/kg/day): 9.2%
- AUC (work to failure) ([2]; mature adults, 50 mg/kg/day): 25.4 N-mm
- Apparent Strength ([2]; mature adults, 50 mg/kg/day): 53.3 MPa
- Modulus ([2]; mature adults, 50 mg/kg/day): 2197.6 MPa
- Peak Load ([2]; mature adults, 50 mg/kg/day): 430.6 N
- Stiffness ([2]; mature adults, 50 mg/kg/day): 6194.6 N/mm
- Toughness ([2]; mature adults, 50 mg/kg/day): 1.1 MPa
- Yield Load ([2]; mature adults, 50 mg/kg/day): 368.0 N
- Yield Stress ([2]; mature adults, 50 mg/kg/day): 45.5 MPa
- AUC (work to failure), percent difference from Vehicle Control ([2]; young adults, 10 mg/kg/day): −9.8%
- Apparent Strength, percent difference from Vehicle Control ([2]; young adults, 10 mg/kg/day): 3.5%
- Modulus, percent difference from Vehicle Control ([2]; young adults, 10 mg/kg/day): 19.2%
- Peak Load, percent difference from Vehicle Control ([2]; young adults, 10 mg/kg/day): 5.2%
- Stiffness, percent difference from Vehicle Control ([2]; young adults, 10 mg/kg/day): 12.0%
- Toughness, percent difference from Vehicle Control ([2]; young adults, 10 mg/kg/day): −19.6%
- Yield Load, percent difference from Vehicle Control ([2]; young adults, 10 mg/kg/day): 8.3%
- Yield Stress, percent difference from Vehicle Control ([2]; young adults, 10 mg/kg/day): 6.1%
- AUC (work to failure) ([2]; young adults, 10 mg/kg/day): 14.4 N-mm
- Apparent Strength ([2]; young adults, 10 mg/kg/day): 34.4 MPa
- Modulus ([2]; young adults, 10 mg/kg/day): 1559.1 MPa
- Peak Load ([2]; young adults, 10 mg/kg/day): 255.9 N
- Stiffness ([2]; young adults, 10 mg/kg/day): 4009.8 N/mm
- Toughness ([2]; young adults, 10 mg/kg/day): 0.7 MPa
- Yield Load ([2]; young adults, 10 mg/kg/day): 222.5 N
- Yield Stress ([2]; young adults, 10 mg/kg/day): 29.9 MPa
- AUC (work to failure), percent difference from Vehicle Control ([2]; young adults, 50 mg/kg/day): 2.1%
- Apparent Strength, percent difference from Vehicle Control ([2]; young adults, 50 mg/kg/day): 16.4%
- Modulus, percent difference from Vehicle Control ([2]; young adults, 50 mg/kg/day): 23.3%
- Peak Load, percent difference from Vehicle Control ([2]; young adults, 50 mg/kg/day): 10.2%
- Stiffness, percent difference from Vehicle Control ([2]; young adults, 50 mg/kg/day): 10.3%
- Toughness, percent difference from Vehicle Control ([2]; young adults, 50 mg/kg/day): 1.5%
- Yield Load, percent difference from Vehicle Control ([2]; young adults, 50 mg/kg/day): 9.7%
- Yield Stress, percent difference from Vehicle Control ([2]; young adults, 50 mg/kg/day): 15.8%
- AUC (work to failure) ([2]; young adults, 50 mg/kg/day): 16.3 N-mm
- Apparent Strength ([2]; young adults, 50 mg/kg/day): 38.7 MPa
- Modulus ([2]; young adults, 50 mg/kg/day): 1613.3 MPa
- Peak Load ([2]; young adults, 50 mg/kg/day): 268.0 N
- Stiffness ([2]; young adults, 50 mg/kg/day): 3951.0 N/mm
- Toughness ([2]; young adults, 50 mg/kg/day): 0.9 MPa
- Yield Load ([2]; young adults, 50 mg/kg/day): 225.4 N
- Yield Stress ([2]; young adults, 50 mg/kg/day): 32.7 MPa
- Femur 3-point bending AUC, percent difference from Vehicle Control ([3]; Mature Adults, 10 mg/kg/day): 13.4%
- Femur 3-point bending Modulus, percent difference from Vehicle Control ([3]; Mature Adults, 10 mg/kg/day): −0.2%
- Femur 3-point bending Peak Load, percent difference from Vehicle Control ([3]; Mature Adults, 10 mg/kg/day): 10.1%
- Femur 3-point bending Stiffness, percent difference from Vehicle Control ([3]; Mature Adults, 10 mg/kg/day): 1.3%
- Femur 3-point bending Toughness, percent difference from Vehicle Control ([3]; Mature Adults, 10 mg/kg/day): 10.5%
- Femur 3-point bending Ultimate Stress, percent difference from Vehicle Control ([3]; Mature Adults, 10 mg/kg/day): 6.1%
- Femur 3-point bending AUC ([3]; Mature Adults, 10 mg/kg/day): 64.1 N-mm
- Femur 3-point bending Modulus ([3]; Mature Adults, 10 mg/kg/day): 6137.7 MPa
- Femur 3-point bending Peak Load ([3]; Mature Adults, 10 mg/kg/day): 149.8 N
- Femur 3-point bending Stiffness ([3]; Mature Adults, 10 mg/kg/day): 410.2 N/mm
- Femur 3-point bending Toughness ([3]; Mature Adults, 10 mg/kg/day): 7.8 MPa
- Femur 3-point bending Ultimate Stress ([3]; Mature Adults, 10 mg/kg/day): 200.5 MPa
- Femur 3-point bending AUC, percent difference from Vehicle Control ([3]; Mature Adults, 50 mg/kg/day): 8.7%
- Femur 3-point bending Modulus, percent difference from Vehicle Control ([3]; Mature Adults, 50 mg/kg/day): 1.2%
- Femur 3-point bending Peak Load, percent difference from Vehicle Control ([3]; Mature Adults, 50 mg/kg/day): 4.5%
- Femur 3-point bending Stiffness, percent difference from Vehicle Control ([3]; Mature Adults, 50 mg/kg/day): −0.9%
- Femur 3-point bending Toughness, percent difference from Vehicle Control ([3]; Mature Adults, 50 mg/kg/day): 6.6%
- Femur 3-point bending Ultimate Stress, percent difference from Vehicle Control ([3]; Mature Adults, 50 mg/kg/day): 3.4%
- Femur 3-point bending AUC ([3]; Mature Adults, 50 mg/kg/day): 61.4 N-mm
- Femur 3-point bending Modulus ([3]; Mature Adults, 50 mg/kg/day): 6222.5 MPa
- Femur 3-point bending Peak Load ([3]; Mature Adults, 50 mg/kg/day): 142.1 N
- Femur 3-point bending Stiffness ([3]; Mature Adults, 50 mg/kg/day): 401.4 N/mm
- Femur 3-point bending Toughness ([3]; Mature Adults, 50 mg/kg/day): 7.5 MPa
- Femur 3-point bending Ultimate Stress ([3]; Mature Adults, 50 mg/kg/day): 195.4 MPa
- Femur 3-point bending AUC, percent difference from Vehicle Control ([3]; Young Adults, 10 mg/kg/day): 4.1%
- Femur 3-point bending Modulus, percent difference from Vehicle Control ([3]; Young Adults, 10 mg/kg/day): 2.1%
- Femur 3-point bending Peak Load, percent difference from Vehicle Control ([3]; Young Adults, 10 mg/kg/day): 0.9%
- Femur 3-point bending Stiffness, percent difference from Vehicle Control ([3]; Young Adults, 10 mg/kg/day): −0.4%
- Femur 3-point bending Toughness, percent difference from Vehicle Control ([3]; Young Adults, 10 mg/kg/day): 2.5%
- Femur 3-point bending Ultimate Stress, percent difference from Vehicle Control ([3]; Young Adults, 10 mg/kg/day): 1.3%
- Femur 3-point bending AUC ([3]; Young Adults, 10 mg/kg/day): 63.7 N-mm
- Femur 3-point bending Modulus ([3]; Young Adults, 10 mg/kg/day): 5154.1 MPa
- Femur 3-point bending Peak Load ([3]; Young Adults, 10 mg/kg/day): 97.9 N
- Femur 3-point bending Stiffness ([3]; Young Adults, 10 mg/kg/day): 277.3 N/mm
- Femur 3-point bending Toughness ([3]; Young Adults, 10 mg/kg/day): 8.7 MPa
- Femur 3-point bending Ultimate Stress ([3]; Young Adults, 10 mg/kg/day): 155.8 MPa
- Femur 3-point bending AUC, percent difference from Vehicle Control ([3]; Young Adults, 50 mg/kg/day): −19.9%
- Femur 3-point bending Modulus, percent difference from Vehicle Control ([3]; Young Adults, 50 mg/kg/day): 4.0%
- Femur 3-point bending Peak Load, percent difference from Vehicle Control ([3]; Young Adults, 50 mg/kg/day): −3.0%
- Femur 3-point bending Stiffness, percent difference from Vehicle Control ([3]; Young Adults, 50 mg/kg/day): 2.0%
- Femur 3-point bending Toughness, percent difference from Vehicle Control ([3]; Young Adults, 50 mg/kg/day): −19.2%
- Femur 3-point bending Ultimate Stress, percent difference from Vehicle Control ([3]; Young Adults, 50 mg/kg/day): −2.3%
- Femur 3-point bending AUC ([3]; Young Adults, 50 mg/kg/day): 49.0 N-mm
- Femur 3-point bending Modulus ([3]; Young Adults, 50 mg/kg/day): 5249.6 MPa
- Femur 3-point bending Peak Load ([3]; Young Adults, 50 mg/kg/day): 94.1 N
- Femur 3-point bending Stiffness ([3]; Young Adults, 50 mg/kg/day): 283.9 N/mm
- Femur 3-point bending Toughness ([3]; Young Adults, 50 mg/kg/day): 6.8 MPa
- Femur 3-point bending Ultimate Stress ([3]; Young Adults, 50 mg/kg/day): 150.2 MPa

From patent US20120270819A1, “USE OF COMPOUNDS WITH SGLT-1/SGLT-2 INHIBITOR ACTIVITY FOR PRODUCING MEDICAMENTS FOR TREATMENT OF BONE DISEASE” (SANOFI, priority 2009, published 2012)
